ChEMBL document CHEMBL4842388, “Discovery of Potent, Selective, and Brain-Penetrant Apoptosis Signal-Regulating Kinase 1 (ASK1) Inhibitors that Modulate Brain Inflammation In Vivo” (J Med Chem, 2021)
Calls of active or inactive are those of the source. The calls are words filed in the database; no cut-off is given here.

Key:
[1] = target: T1, Mitogen-activated protein kinase kinase kinase 5 (Mus musculus) (UniProt O35099); test: In vivo inhibition of ASK1 in Tg4510 mouse model of Alzheimer's disease assessed as reduction in IL-1beta levels in cortex at 3 to 30 mg/kg, po BID for 3 days measured after 4 hrs post last dose by ELISA; assay type: functional, organism-based; settings: dose 3-30 mg/kg, time 3.0 day
T1 sequence (whole entry): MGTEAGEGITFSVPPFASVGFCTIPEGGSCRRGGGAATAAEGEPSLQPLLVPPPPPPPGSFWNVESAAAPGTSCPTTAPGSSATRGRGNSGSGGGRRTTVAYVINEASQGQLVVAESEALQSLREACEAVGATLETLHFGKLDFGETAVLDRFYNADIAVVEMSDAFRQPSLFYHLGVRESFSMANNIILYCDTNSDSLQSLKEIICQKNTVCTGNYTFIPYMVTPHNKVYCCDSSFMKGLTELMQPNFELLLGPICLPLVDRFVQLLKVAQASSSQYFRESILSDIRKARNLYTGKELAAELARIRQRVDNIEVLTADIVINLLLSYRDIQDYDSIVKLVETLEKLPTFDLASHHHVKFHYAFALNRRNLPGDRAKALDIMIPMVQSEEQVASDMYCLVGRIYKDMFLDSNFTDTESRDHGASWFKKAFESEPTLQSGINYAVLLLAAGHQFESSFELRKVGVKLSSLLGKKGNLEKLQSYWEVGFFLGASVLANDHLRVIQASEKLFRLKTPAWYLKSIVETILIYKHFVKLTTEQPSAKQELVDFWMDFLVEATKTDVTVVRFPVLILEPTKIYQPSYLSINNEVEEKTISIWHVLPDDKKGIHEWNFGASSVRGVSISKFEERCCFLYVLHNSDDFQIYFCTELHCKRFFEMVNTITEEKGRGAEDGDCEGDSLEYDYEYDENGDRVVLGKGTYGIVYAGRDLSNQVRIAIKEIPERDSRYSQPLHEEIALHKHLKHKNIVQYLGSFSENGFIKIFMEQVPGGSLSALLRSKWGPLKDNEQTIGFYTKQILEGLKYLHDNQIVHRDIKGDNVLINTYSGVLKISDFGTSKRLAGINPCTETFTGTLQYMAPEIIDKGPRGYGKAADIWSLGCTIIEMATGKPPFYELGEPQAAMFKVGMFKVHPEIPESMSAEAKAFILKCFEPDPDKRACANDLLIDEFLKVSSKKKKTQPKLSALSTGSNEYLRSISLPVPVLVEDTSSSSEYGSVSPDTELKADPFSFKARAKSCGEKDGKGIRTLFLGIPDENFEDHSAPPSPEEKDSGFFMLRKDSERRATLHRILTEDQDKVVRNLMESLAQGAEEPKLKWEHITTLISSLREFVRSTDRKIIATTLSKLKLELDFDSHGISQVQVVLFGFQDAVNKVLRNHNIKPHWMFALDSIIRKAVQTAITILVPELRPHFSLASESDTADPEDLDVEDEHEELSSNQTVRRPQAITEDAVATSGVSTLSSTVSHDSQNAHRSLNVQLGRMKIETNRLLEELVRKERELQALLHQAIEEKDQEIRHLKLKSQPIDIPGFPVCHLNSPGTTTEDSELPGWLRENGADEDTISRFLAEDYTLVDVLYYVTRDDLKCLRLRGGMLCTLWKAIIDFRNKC

[2] = target: T2, Mitogen-activated protein kinase kinase kinase 5 (Homo sapiens, UniProt Q99683); test: Inhibition of full-length human ASK1 expressed in HEK293T cells assessed as reduction in autophosphorylation of ASK1 at […] residue incubated for 1 hr; assay type: cell-based
T2 sequence (Q99683 whole entry): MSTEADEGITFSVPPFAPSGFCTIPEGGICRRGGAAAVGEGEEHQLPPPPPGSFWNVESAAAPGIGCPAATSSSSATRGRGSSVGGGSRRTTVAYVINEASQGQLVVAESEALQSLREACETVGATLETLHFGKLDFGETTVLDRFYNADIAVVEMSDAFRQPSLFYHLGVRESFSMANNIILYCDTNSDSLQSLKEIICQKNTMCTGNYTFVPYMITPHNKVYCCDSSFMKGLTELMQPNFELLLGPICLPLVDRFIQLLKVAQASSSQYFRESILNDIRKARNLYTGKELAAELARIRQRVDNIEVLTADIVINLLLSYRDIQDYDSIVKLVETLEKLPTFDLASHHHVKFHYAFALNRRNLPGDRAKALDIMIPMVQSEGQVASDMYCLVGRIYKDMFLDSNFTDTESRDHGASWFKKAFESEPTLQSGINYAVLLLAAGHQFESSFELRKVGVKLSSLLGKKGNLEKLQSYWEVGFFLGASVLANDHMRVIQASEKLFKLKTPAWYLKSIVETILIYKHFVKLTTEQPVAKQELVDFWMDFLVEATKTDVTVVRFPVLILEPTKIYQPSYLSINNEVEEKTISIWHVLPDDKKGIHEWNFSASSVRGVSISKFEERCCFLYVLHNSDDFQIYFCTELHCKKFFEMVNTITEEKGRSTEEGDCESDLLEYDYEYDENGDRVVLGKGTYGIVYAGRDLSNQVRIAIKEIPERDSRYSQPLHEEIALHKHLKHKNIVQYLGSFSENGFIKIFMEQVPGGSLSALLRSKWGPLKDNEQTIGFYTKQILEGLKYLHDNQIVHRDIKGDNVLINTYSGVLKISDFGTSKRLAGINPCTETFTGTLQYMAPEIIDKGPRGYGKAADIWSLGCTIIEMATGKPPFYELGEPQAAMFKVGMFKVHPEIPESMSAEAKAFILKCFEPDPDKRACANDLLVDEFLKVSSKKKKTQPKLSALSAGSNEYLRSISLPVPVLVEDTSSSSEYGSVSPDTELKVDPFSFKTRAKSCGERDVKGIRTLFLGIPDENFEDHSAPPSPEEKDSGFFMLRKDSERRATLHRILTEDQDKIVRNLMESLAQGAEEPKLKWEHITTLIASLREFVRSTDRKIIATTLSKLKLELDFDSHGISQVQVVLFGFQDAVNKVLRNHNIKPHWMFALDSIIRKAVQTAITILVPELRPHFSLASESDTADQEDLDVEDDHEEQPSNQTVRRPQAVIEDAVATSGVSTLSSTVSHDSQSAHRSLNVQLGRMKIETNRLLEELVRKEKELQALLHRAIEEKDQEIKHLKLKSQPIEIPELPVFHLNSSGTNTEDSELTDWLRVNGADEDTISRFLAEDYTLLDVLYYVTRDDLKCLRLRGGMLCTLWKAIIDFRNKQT

[3] = target: T2, Mitogen-activated protein kinase kinase kinase 5; test: Inhibition of ASK1 (unknown origin) using myelin basic protein as substrate preincubated for 20 mins followed by 33P-ATP addition and measured after 2 hrs
[4] = target: Adenosine receptor A2a (Homo sapiens, UniProt P29274); test: Inhibition of A2A receptor (unknown origin)
Chain of Adenosine receptor A2a (P29274 whole entry): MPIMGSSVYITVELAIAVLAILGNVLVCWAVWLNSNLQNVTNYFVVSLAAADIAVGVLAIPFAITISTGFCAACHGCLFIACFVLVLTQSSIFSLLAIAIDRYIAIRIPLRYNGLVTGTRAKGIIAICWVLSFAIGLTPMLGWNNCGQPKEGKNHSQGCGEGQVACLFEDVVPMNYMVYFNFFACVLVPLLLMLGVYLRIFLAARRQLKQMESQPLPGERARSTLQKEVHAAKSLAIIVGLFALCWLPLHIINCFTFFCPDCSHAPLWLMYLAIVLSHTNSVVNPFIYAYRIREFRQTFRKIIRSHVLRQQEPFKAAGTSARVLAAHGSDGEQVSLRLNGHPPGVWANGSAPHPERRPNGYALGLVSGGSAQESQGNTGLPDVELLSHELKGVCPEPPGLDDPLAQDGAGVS

[5] = target: 5-hydroxytryptamine receptor 2B (Homo sapiens, UniProt P41595); test: Inhibition of 5HT2B receptor (unknown origin)
Chain of 5-hydroxytryptamine receptor 2B (P41595 whole entry): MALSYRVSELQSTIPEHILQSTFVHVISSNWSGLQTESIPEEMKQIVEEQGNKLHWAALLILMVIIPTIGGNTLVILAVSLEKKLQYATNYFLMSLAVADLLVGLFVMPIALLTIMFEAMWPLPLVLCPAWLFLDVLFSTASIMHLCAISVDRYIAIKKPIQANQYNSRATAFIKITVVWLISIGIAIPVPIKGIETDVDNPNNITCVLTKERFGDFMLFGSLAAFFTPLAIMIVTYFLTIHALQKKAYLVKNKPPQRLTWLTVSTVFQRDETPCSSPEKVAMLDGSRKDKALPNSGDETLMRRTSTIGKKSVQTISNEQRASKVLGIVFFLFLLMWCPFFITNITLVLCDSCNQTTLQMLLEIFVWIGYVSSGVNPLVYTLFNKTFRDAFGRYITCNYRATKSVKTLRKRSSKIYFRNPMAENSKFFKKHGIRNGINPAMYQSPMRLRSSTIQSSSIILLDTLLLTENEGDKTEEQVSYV

[6] = target: T1, Mitogen-activated protein kinase kinase kinase 5 (Mus musculus); test: In vivo inhibition of ASK1 in Tg4510 mouse model of Alzheimer's disease assessed as reduction in MCP-1 levels in cortex at 3 to 30 mg/kg, po BID for 3 days measured after 4 hrs post last dose by ELISA; assay type: functional, organism-based; settings: dose 3-30 mg/kg, time 3.0 day
[7] = target: T1, Mitogen-activated protein kinase kinase kinase 5 (Mus musculus); test: In vivo inhibition of ASK1 in Tg4510 mouse model of Alzheimer's disease assessed as reduction in KC/GRO levels in cortex at 3 to 30 mg/kg, po BID for 3 days measured after 4 hrs post last dose by ELISA; assay type: functional, organism-based; settings: dose 3-30 mg/kg, time 3.0 day

- inhibition [1]: Active
- IC50 [2]: 25 nM
- IC50 [3]: 7 nM
- IC50 [4]: > 1000 nM
- IC50 [5]: > 1000 nM
- inhibition [6]: Active
- inhibition [7]: Active
Compound: COc1ncc(F)cc1C(=O)Nc1cccc(-c2nncn2[C@@H](C)C(F)(F)F)n1
